Patent publication KR20210106935A, “암의 예방 또는 치료용 조성물” (연세대학교 산학협력단, priority 2019, dated 2021)

Key:
[1] = system: GSPY1 cells (Thyroid cancer; Papillary); assay: Cell proliferation IC50 (MTT), patient-derived papillary thyroid cancer cells GSPY1; format: cell-based; details: Homo sapiens, PTC stage IV, mean ± SEM, read-out: cell proliferation IC50 - half maximal inhibitory concentration
[2] = system: FGFR signaling (e.g. PKC, MEK, p-ERK) (FGFR 시그널링); assay: FGFR signaling in young-patient-derived cancer cells; format: cell-based, human; details: young-patient-derived cancer cell lines
[3] = system: GSPY2 cells (Thyroid cancer; Papillary); assay: Cell proliferation IC50 (MTT), patient-derived papillary thyroid cancer cells GSPY2; format: cell-based; details: Homo sapiens, PTC stage IV, mean ± SEM, read-out: cell proliferation IC50 - half maximal inhibitory concentration
[4] = system: EMT protein (e.g. Snail, Zeb1) (EMT 단백질); assay: EMT protein expression in young-patient-derived cancer cells; format: cell-based, human; details: young-patient-derived cancer cell lines
[5] = system: GSPO1 cells (Thyroid cancer; Papillary); assay: Cell proliferation IC50 (MTT), patient-derived papillary thyroid cancer cells GSPO1 (first line); format: cell-based; details: Homo sapiens, adult patient, by order of Table 3, PTC stage IV, mean ± SEM, read-out: cell proliferation IC50 - half maximal inhibitory concentration
[6] = system: GSPO1 cells (Thyroid cancer; Papillary); assay: Cell proliferation IC50 (MTT), patient-derived papillary thyroid cancer cells GSPO1 (second line of the same label); format: cell-based; details: Homo sapiens, adult patient, by order of Table 3, PTC stage IV, mean ± SEM, read-out: cell proliferation IC50 - half maximal inhibitory concentration
[7] = system: cancer cells from young patients (어린 환자의 암 세포); assay: Cell count over 7 days after drug treatment, young-patient papillary thyroid cancer cells; format: cell-based, human; details: unlike sorafenib, Figs. 4 to 7

SMILES	IC50 [1] [µM]	inhibition of FGFR signaling [2]	IC50 [3] [µM]	effect on EMT protein expression [4]	IC50 [5] [µM]	IC50 [6] [µM]	inhibition of cancer proliferation (cell number) [7]
CCN(CC)C(=S)SSC(=S)N(CC)CC [Disulfiram, 디에틸카르바모티올설파닐 N,N-디에틸카르바모디티오에이트]	0.305	FGFR 시그널링(예를 들면, PKC, MEK, p-ERK 등)을 억제	0.304	EMT 단백질의 발현(예를 들면, Snail, Zeb1 등)을 억제(down-regulated)	0.22	0.21	어린 환자에게서 더 효과적으로 암의 증식을 억제하는 것을 확인할 수 있었다
CNC(=O)c1cc(Oc2ccc(NC(=O)Nc3ccc(Cl)c(C(F)(F)F)c3)cc2)ccn1 [Sorafenib, 4-[4-[[[[4-클로로-3-(트리플루오르메틸)페닐]아미노]카르복실]아미노]페녹시]-N-메틸-2-피리딘카르복사미드]	17.2	–	20.2	FGFR을 기반으로 하는 EMT 단백질 발현에 영향을 주지 않는	9.84	10.1	–
